Laboratory results from publication PMC4512978, “Synthesis and evaluation in rats of homologous series of [^18F]-labeled dopamine D2/3 receptor agonists based on the 2-aminomethylchroman scaffold as potential PET tracers” (EJNMMI Research, 2015).

Tests used:
[1] = LogD measurement (n-octanol/phosphate buffer); assay type: physicochemical; settings: n-octanol / 1 M phosphate buffer pH 7.4
Experimental: LogD of the tracers was measured using the radioactivity remaining on the HLB SPE cartridges after their elution with ethanol during the tracer formulation procedure (see above). The cartridge was dried with nitrogen for 5 min and eluted with at least 1.5 mL n-octanol. A 500 μL portion of octanol eluate was mixed with 500 μL of 1 M phosphate buffer (pH 7.4) and vigorously vortexed for 5 min. The mixture was then centrifuged at 17,000g for 10 min and 3 × 100 μL aliquots of organic and aqueous phase were loaded into a gamma-counter for radioactivity measurement. To correct for possible presence of radioactive impurities in the tracer, aliquots of organic and aqueous phases were later analyzed by radio-TLC, and the counts obtained from the gamma-counter were corrected according to the percentage of impurities found in aqueous and organic phases. LogD was calculated with the following formula: LogD=lgCPMorg×Xorgtracer/CPMaq×Xaqtracer,
where CPMorg is the mean radioactivity of the organic aliquots, Xorgtracer is the mean percentage of radioactivity accounting for intact tracer in organic aliquots (as determined from radio-TLC), and CPMaq and Xaqtracer are the corresponding values for the aqueous phase.
For each tracer batch used for logD determination, the experiment was performed in duplicate. LogD values are means calculated from at least two independent experiments.

D2/3R [2] = experiment: In vitro autoradiography of rat brain slices; assay type: binding, Sprague-Dawley rats; settings: for Striatal SBR % change relative to control condition, Raclopride / Striatal SBR, Raclopride: with 10 μM raclopride; for Striatal SBR % change relative to control condition, GTP / Striatal SBR, GTP: with 100 μM GTP
Experimental: In vitro autoradiography assay was performed as previously described. Frozen brains of young (10–12 weeks of age; 300–350 g body weight) male Sprague-Dawley rats (Harlan, Netherlands) were cut at −12 °C into sagittal slices 20 μm thick using a Leica microtome, and the slices were thaw-mounted on Superfrost (70 × 22 mm, Fischer) adhesive slides. Only slices containing both striatal and cerebellar regions were used. The slides with slices mounted them were allowed to dry, then put into storage boxes with silica gel bags and stored at −80 °C.
On the day of the experiment (within 1 week from the preparation of the slices), the slides were taken out of storage and allowed to come to room temperature for 5–10 min. Then, 1–1.2 mL of incubation buffer (50 mM Tris-HCl, 5 mM KCl, 2 mM CaCl2, 2 mM MgCl2, 120 mM NaCl, pH 7.4 25 °C) was applied per slide, and the slides were pre-incubated for 15 min at room temperature. The buffer was then removed, and the slides were placed into staining jars containing radioligand solution (concentration range of 0.1–10 nM) in the incubation buffer with or without 10 μM raclopride (D2/3 antagonist) or 100 μM guanosine-5'-triphosphate sodium salt (GTP, stimulator of G-protein uncoupling from the receptors). After 35 min of incubation at 37 °C, slides were washed once with ice-cold incubation buffer (3.5 min) and dipped for 30 s into ice-cold distilled water to remove buffer salts.
After drying the slides in a stream of room-temperature air, they were exposed on phosphor storage screens for 6–10 h. The storage screens were read by Cyclone Storage Phosphor System (Packard Instruments Co.). Quantification of plate readings was done with OptiQuant software (version 3.00, Packard Instruments Co.).
(§1) Degree of D2/3R-specific binding of the tracers was characterized by BPND (as given above) or the specific binding ratio (SBR) given as target region activity/cerebellar activity - 1. Both were calculated under control conditions and in response to the raclopride challenge.

D2/3R [3] = settings: cited from earlier work; for displacement of apparent D2/3R-specific striatal uptake: Sprague-Dawley rats, 1–2 mg/kg (2.9–5.8 μmol/kg) raclopride
D2/3R [4] = experiment: MicroPET study in rats; assay type: in vivo, Sprague-Dawley rats; settings: saline pre-treated rats; peak (45 min post-injection for [^18F]FEt-AMC13 and [^11C]raclopride)
Experimental: Animal experiments were performed by licensed investigators in compliance with the Law on Animal Experiments of The Netherlands. The protocol was approved by the Committee on Animal Ethics of the University of Groningen. Young male (10–12 weeks of age, 300–350 g body weight) Sprague-Dawley rats (Harlan, the Netherlands) were used for all experiments. The rats were maintained at a 12-h light/12-h dark regime and were fed standard laboratory chow ad libitum.
Distribution of the radiotracers was studied in rats pre-treated, at random, with physiological saline (controls) or raclopride tartrate (1 mg/kg calculated per raclopride base, equivalent to 2.9 μmol/kg). Saline and raclopride were administered intravenously (1 mL/kg injected volume).
An additional group of saline pre-treated rats, injected with [^11C]raclopride, served as positive controls for D2/3R-specific brain uptake.
Two rats were scanned simultaneously. Before all manipulations, animals were anesthetized with a mixture of isoflurane/air (inhalation anesthesia, 5 % ratio during induction, 2 % at maintenance). Cannulae were placed into the rats’ left femoral arteries and veins; the operation took 45–50 min. The rats were positioned supine inside the camera (Focus 220 microPET, Siemens-Concorde), one above the other with their heads in the camera’s field of view. A 515-s transmission scan with a Co-57 point source was performed. Tracer was injected through the venous cannula as a slow bolus (1 mL volume, 60 s long) using an infusion pump. The second (upper) animal was injected 16 min after the first (lower).
PET acquisition was started during the injection of radioactivity in the first rat. A 106-min long (76 min long in the case of [^11C]raclopride) list-mode acquisition protocol was used for the scan.
List-mode data from the 106-min-long and 76-min-long scans were reframed into, respectively, 90-min-long and 60-min-long dynamic sequences of 6 × 10, 4 × 30, 2 × 60, 1 × 120, 1 × 180, 4 × 300, 3 × 600, and (for 90-min-long scans) 2 × 900 s frames. The data were reconstructed per time frame using an iterative reconstruction algorithm (attenuation-weighted 2-dimensional ordered-subset expectation maximization, provided by Siemens; 4 iterations, 16 subsets; zoom factor 2). Datasets were fully corrected for random coincidences, scatter, and attenuation. Data from the transmission scan were used for attenuation correction. The final datasets consisted of 95 slices, with a slice thickness of 0.8 mm and an in-plane image matrix size of 128 × 128 and pixel size of 0.47 × 0.47 mm.
Reconstructed images were analyzed with Inveon 2.0 software (Siemens Medical Solutions, USA, Inc). Regions of interest (ROIs) were drawn manually on a T2-weighted MRI template of rat brain around the striatum, brainstem, cortex, hippocampus, hypothalamus, thalamus, olfactory bulbs, and cerebellum around the whole brain and around the pituitary gland. The MRI template was co-registered with the PET scan by image fusion. The time-activity curves (TAC) per ROI were determined in Bq/cm^3 units and converted into standardized uptake values (SUVs).
as §1

[5] = tested on: D2/3R against serotonin-1A and adrenergic α1 receptors; design: method as in PMID 9435894; settings: cited from earlier work
D2/3R [6] = experiment: Kinetic analysis of PET data (1TCM, 2TCM, Logan, SRTM); assay type: in vivo, Sprague-Dawley rats; settings: 1 mg/kg raclopride, measured with [^18F]FEt-AMC13
Experimental: Kinetic analysis is described using the nomenclature proposed by Innis et al.. ROI TACs of [^18F]FEt-AMC13 were analyzed with one-tissue and two-tissue compartmental models of reversible binding (1TCM and 2TCM, respectively) to obtain individual rate constants. From these, the regional distribution volumes (VT) were calculated and compared to those obtained with Logan graphical analysis. Binding potentials (BPND) were calculated from the distribution ratios as VT (target) / VT (cerebellum) – 1, or estimated with the simplified reference tissue model (SRTM) using the cerebellum as reference region.
Metabolite-corrected plasma-derived arterial input function and whole blood time-activity curve were used for Logan, 1TCM, and 2TCM analyses. Fractional cerebral blood volume was set to 3.6 % [27]. For one rat in the raclopride-treated group, no input curves could be obtained; therefore, its PET data were only analyzed with SRTM.
as §1

SMILES	logD [1]	Striatal SBR % change relative to control condition, Raclopride (D2/3R [2]) [%]	Striatal SBR, Raclopride (D2/3R [2])	Striatal SBR % change relative to control condition, GTP (D2/3R [2]) [%]	Striatal SBR, GTP (D2/3R [2])	further results
Oc1ccc2c(c1)O[C@@H](CNCc1ccc(OCCC[18F])cc1)CC2 [[^18F]FPr-AMC13]	1.98 ± 0.08	−80	0.41 ± 0.23	−80	0.42 ± 0.23	
CC[11CH2]N1CCO[C@@H]2c3cc(O)ccc3CCC21 (stereo partly shown) [[^11C]PHNO]						displacement of apparent D2/3R-specific uptake (D2/3R [3]; 0.2 mg/kg (0.58 μmol/kg) raclopride): over 80%; displacement of apparent D2/3R-specific striatal uptake (D2/3R [3]): > 90%
CCCN1CCc2cc(O[11CH3])cc3c2C1Cc1ccc(O)c(O)c1-3 (stereo not shown) [[^11C]MNPA]						displacement of apparent D2/3R-specific striatal uptake (D2/3R [3]): > 90%
CCN1CCC[C@H]1CNC(=O)c1c(O)c(Cl)cc(Cl)c1O[11CH3] (racemic) [[^11C]raclopride, reference compound]						Striatum-to-cerebellum uptake ratio (PET) (D2/3R [4]): 7.45 ± 1.60
Oc1ccc2c(c1)O[C@@H](CNCc1ccccc1)CC2 [(R)-2-[(benzylamino)methyl]chroman-7-ol]						selectivity [5]: selective for D2/3R against serotonin-1A and adrenergic α1 receptors
CCCN(CCC[18F])C1CCc2c(O)cccc2C1 (stereo not shown) [[^18F]5-OH-FPPAT]						striatum-to-cerebellum ratio (D2/3R [3]; rats): 2
Oc1ccc2c(c1)O[C@@H](CNCCN1CCN(c3ccc(OCCC[18F])cc3)CC1)CC2 [[^18F]FPr-AMC15]	2.39 ± 0.001	−61	0.39 ± 0.22	−63	0.37 ± 0.24	
CCN1CCC[C@H]1CNC(=O)c1c(O)c(Cl)cc(Cl)c1OC [raclopride, reference compound]						raclopride-induced D2/3R occupancy (modified Lassen plot) (D2/3R [6]): 20–25%
Oc1ccc2c(c1)O[C@@H](CNCCN1CCN(c3ccc(OCCCC[18F])cc3)CC1)CC2 [[^18F]FBu-AMC15]	2.71 ± 0.07	−64	0.25 ± 0.23	−67	0.23 ± 0.23	
